Assay results from US10918638B2, “Histone deacetylase 6 inhibition for enhancing T-cell function during anti-tumor response and tumor-peptide vaccination” (H. LEE MOFFITT CANCER CENTER AND RESEARCH INSTITUTE, INC., priority 2014, dated 2021).

What was measured:
Fc-muMCL1 lymphoma cells [1] = experiment: Fc-muMCL1 lymphoma tumor growth in C57BL/6 mice; assay type: in vivo; conditions: C57BL/6 (WT) mice, 35 mg/kg daily for 16 days vs vehicle
Description: (§1) FIGS. 3A and 3B. […] (FIG. 3A) C57BL/6 or (FIG. 3B) SCID mice were subcutaneous injected with 3×10^6 Fc-muMCL1 lymphoma cells. After tumor appearance, six mice were treated daily with 35 mg/kg of Tubastatin A and four mice received vehicle control, for 16 days. […] To further evaluate whether these in vivo responses were dependent on T-cells, WT or lympho-deficient, lymphoma-bearing mice were treated with an HDAC6 inhibitor. HDAC6 inhibition led to reduced tumor burden in WT mice, which was absent in lympho-deficient mice, highlighting the importance of lymphocytes in the aforementioned in vivo results. Thus, the role of HDAC6 in regulating immune cells during anti-tumor response appears to be more important than the previously reported role as a regulator of Treg function.

Fc-muMCL1 lymphoma cells [2] = experiment: Fc-muMCL1 lymphoma tumor growth in SCID mice; assay type: in vivo; conditions: SCID (lympho-deficient) mice, 35 mg/kg daily for 16 days vs vehicle
Description: as §1

CN1CCc2c(c3ccccc3n2Cc2ccc(C(=O)NO)cc2)C1 [Tubastatin A]
anti-tumor response / tumor burden (Fc-muMCL1 lymphoma cells [1]): Enhanced anti-tumor response | anti-tumor response / tumor burden (Fc-muMCL1 lymphoma cells [2]): dependent on an intact immune system
